Experiments:
[1] = system: USP mRNA level in nTreg and iTreg cells; experiment: In vitro inhibitor assays, USP mRNA level in Treg cells; assay type: cell-based; conditions: 24 hours
Procedure: FIG. 3: Usp22 and Usp21 are required for FOXP3 stability in nTreg cells under environmental and metabolic stress found in the TME. All mRNA values calculated relative to unchallenged WT Treg cells. A, nTreg USP mRNA level in normoxic (21% O2) verses hypoxic (1% O2) conditions after 24 hours (n=6-13). B, FOXP3 MFI change in 22KO nTreg cells relative to WT nTreg cells after 72 hours in normoxic (21% O2) verses hypoxic (1% O2) conditions (n=5). C, nTreg USP mRNA level after treatment with dMOG for 24 hours (n=6). D, USP mRNA level in nTreg cells after exposure to glucose-restricted (0.5 mM) conditions after 24 hours relative to normal media (11 mM glucose) (n=7-18). E, Relative FOXP3 MFI change in nTreg cells from control and cells cultured under low glucose conditions after 48 hours (n=3). F, nTreg USP mRNA level under amino acid starvation for 24 hours (n=5-9). […]
Along with the competition for glucose, a scarcity of amino acids within tumors may also alter immune cell function (35). […] So, we treated Treg cells with an inhibitor of mitochondrial ATP synthase, Oligomycin A, and measured USP mRNA levels.
All nTreg and iTreg cells were plated as described above DMOG (Sigma Catalog #D3695) was administered to the cells in relevant experiments at 1 mM for 24 hours. […] FOXP3 protein level was assessed via flow cytometry following 48 hours of treatment of inhibitors described above. […]

[2] = system: Usp22 and Usp21 expression in iTreg cells; experiment: In vitro iTreg cell TGF-β assay, USP mRNA level; assay type: cell-based; conditions: TGF-β added, inhibitor 25 μg/mL
From the text: FIG. 8: TGF-β induces expression of Usp22 and Usp21 in Treg cells. A, Visual representation of Tumor Conditioned Media (TCM) experiments. B, iTreg USP mRNA level under TGF-β induction post-polarization. Usp22: n=18-19; Usp21: n=7-8; Usp7: 4-5. C, iTreg USP mRNA level under TGF-β with and without a TGF-β inhibitor. Usp22: n=3-11; Usp21: n=8-18; Usp7: 3-8. D, Treg FoxP3 mRNA level with TGF-β induction (n=10). B-D, All mRNA values calculated relative to WT untreated iTreg cells. E, TGF-β level in B16, LLC1 and EG7 tumor conditioned media (n=3). F-H, Correlation between USP induction and TGF-β level in the tumor conditioned media. Usp22: n=3-10; Usp21: n=3-8; Usp7: n=3-6. I, TGF-β mRNA level of control or TGF-β shRNA treated B16 cells (n=3). J, mRNA level of Usp22 in sorted itTreg cells from mice injected with shRNA treated B 16 cells (n=4). B, D, and I, Two-tailed unpaired t-test was performed to determine statistical significance. C and E Ordinary one-way Anova with multiple comparisons between groups was performed to determine statistical significance. All data are presented as mean±stdev. NS, not significant. *P<0.05, **P<0.01, ***P<0.001, ****P<0.0001.
Many types of tumors secrete large amounts of TGF-β, which dampens immune responses and promotes metastasis (21, 22). […]

Structure (SMILES): COC(=O)CNC(=O)C(=O)OC [dMOG, dimethyloxalylglycine]
- Usp22 mRNA level ([1]; nTreg and iTreg cells, 1 mM): increased Usp22 mRNA level

Structure (SMILES): CC(C)(O)c1cc(Nc2cc(Oc3cn(C4CC4)nc3C3CCOCC3)ccn2)ccn1 [LY 3200882]
- TGF-β-induced increase of Usp22 and Usp21 expression [2]: largely diminished

Structure (SMILES): CC[C@H]1/C=C/C=C/C[C@@H](C)[C@H](O)[C@@](C)(O)C(=O)[C@@H](C)[C@H](O)[C@@H](C)C(=O)[C@@H](C)[C@H](O)[C@@H](C)/C=C/C(=O)O[C@@H]2[C@H](C)[C@H](CC1)O[C@]1(CC[C@H](C)[C@H](C[C@@H](C)O)O1)[C@H]2C [Oligomycin A]
- USP mRNA level ([1]; nTreg cells, 1 μM): increased both Usp22 and Usp21, but not Usp7

From US20240238274A1, “INHIBITORS OF UBIQUITIN SPECIFIC PEPTIDASE 22 (USP22) AND USES THEREOF FOR TREATING DISEASE AND DISORDERS” (Northwestern University, priority 2021, published 2024)
